Among the data in patent US11028087B2, “2,6-disubstituted-9-cyclopentyl-9H-purines, use thereof as medicaments, and pharmaceutical compositions” (UNIVERZITA PALACKEHO V OLOMOUCI, priority 2017, dated 2021) are IC50 and EC50 values, retold here.

SMILES strings stand for the structures. Where two headings read alike, the source gives them in different places.

The target in one test is T1, CDK2/Cyclin E (Homo sapiens, UniProt P24941).
T1 construct: made in house; host or cells: Sf9 insect cells, baculoviral infection
Briefly: Kinase inhibition assay with [γ-33P]ATP. Format: biochemical. As for the experimental part:
(§1) CDK1/Cyclin B and CDK2/Cyclin E kinases were produced in Sf9 insect cells via baculoviral infection and purified on a NiNTA column (Qiagen). CDK5/p35 and CDK7Cyclin H/MAT1, FLT3 WT, FLT3-ITD and FLT3 D835 were purchased from ProQinase GmbH. The kinase reactions were assayed with 1 mg/mL histone H1 (for CDK1, CDK2 and CDK5), (YSPTSPS)2KK peptide (for CDK7) or AGLT substrate (for FLT3) in the presence of 15/15/0.15/1.5/1 μM ATP (for CDK1/CDK2/CDK5/CDK7/FLT3), 0.05 μCi [γ-^33P]ATP and of the test compound in a final volume of 10 μL, all in a reaction buffer (60 mM HEPES-NaOH, pH 7.5, 3 mM MgCl2, 3 mM MnCl2, 3 μM Na-orthovanadate, 1.2 mM DTT, 2.5 μg/50 μl PEG20,000). The reactions were stopped by adding 5 μL of 3% aq H3PO4. Aliquots were spotted onto P-81 phosphocellulose (Whatman), washed 3× with 0.5% aq H3PO4 and finally air-dried.

Another test has as its target T2, FLT3-ITD (Homo sapiens, UniProt P36888).
T2 sequence (P36888 1-993): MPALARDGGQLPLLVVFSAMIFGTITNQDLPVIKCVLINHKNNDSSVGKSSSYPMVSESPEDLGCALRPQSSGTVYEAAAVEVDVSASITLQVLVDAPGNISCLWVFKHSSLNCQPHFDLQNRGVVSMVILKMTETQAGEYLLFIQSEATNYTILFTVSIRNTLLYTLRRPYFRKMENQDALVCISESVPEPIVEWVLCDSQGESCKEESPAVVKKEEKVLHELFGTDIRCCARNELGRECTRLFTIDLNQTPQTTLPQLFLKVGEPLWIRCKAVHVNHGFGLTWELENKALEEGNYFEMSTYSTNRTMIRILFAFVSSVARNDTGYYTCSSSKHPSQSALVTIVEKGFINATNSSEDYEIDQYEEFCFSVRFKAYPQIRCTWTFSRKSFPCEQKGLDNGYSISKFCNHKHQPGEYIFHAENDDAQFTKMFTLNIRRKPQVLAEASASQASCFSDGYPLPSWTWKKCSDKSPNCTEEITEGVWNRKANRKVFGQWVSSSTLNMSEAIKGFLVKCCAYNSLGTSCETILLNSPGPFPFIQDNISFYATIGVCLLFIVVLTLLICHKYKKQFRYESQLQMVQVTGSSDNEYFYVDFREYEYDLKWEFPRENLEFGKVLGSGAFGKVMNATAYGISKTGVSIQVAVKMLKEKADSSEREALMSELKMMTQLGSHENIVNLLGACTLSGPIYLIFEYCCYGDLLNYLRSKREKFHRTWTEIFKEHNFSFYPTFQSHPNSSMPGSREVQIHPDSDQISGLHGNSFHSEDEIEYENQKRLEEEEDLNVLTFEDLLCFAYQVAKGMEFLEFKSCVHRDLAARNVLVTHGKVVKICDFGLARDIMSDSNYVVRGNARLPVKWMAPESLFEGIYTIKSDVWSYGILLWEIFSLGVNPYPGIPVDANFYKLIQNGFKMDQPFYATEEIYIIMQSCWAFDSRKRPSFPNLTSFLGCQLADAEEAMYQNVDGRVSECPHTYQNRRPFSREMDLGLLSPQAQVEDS
Briefly: Kinase inhibition assay with [γ-33P]ATP. It is filed as biochemical. Particulars: comparative example; read-out: Influence of compounds on protein kinase inhibition, IC50 values (μM) FLT3 ITD. As for the experimental part: as §1

The test system of test [1] is MV4-11 (acute myeloid leukemia, FLT3-ITD positive). Description: Calcein AM cytotoxicity assay. Format: cell-based. The settings on record: Homo sapiens. The source says: (§2) Cytotoxicity of the compounds is the major property determining their anticancer effect in vivo. One of the parameters used, as the basis for cytotoxicity assays, is the integrity of cytoplasmic membrane of viable cells. For example, a microtiter assay, which uses acetomethoxy derivate of calcein (Calcein AM), is widely used for evaluation of cell proliferation and cytotoxicity. This assay is used in drug screening programs and in chemosensitivity testing. Intracellular esterases of viable cells convert calcein AM to green-fluorescent calcein of which signal corresponds to the number of viable cells in the culture.
(§3) We have been using the following cell lines: MV4-11 (acute myeloid leukemia, FLT3-ITD positive), MOLM-13 (acute myeloid leukemia, FLT3-ITD positive), THP-1 (acute myeloid leukemia, wt FLT3), U937 (monocytic leukemia, wt FLT3), EOL-1 (eosinophilic leukaemia, carrying the fusion FIP1L1-PDGFRA), H1703 (non-small cell lung carcinoma, PDGFRA amplification). […] K562 and MCF-7 cell lines were maintained in DMEM supplemented with 10% fetal bovine serum, penicilin (100 U/ml) and streptomycin (100 μg/ml). All cell lines were cultivated at 37° C. in 5% CO2. For cytotoxicity assays, cells were seeded in appropriate densities into 96 well plates and the next day tested compounds were added at various concentrations in triplicates. Three days after drug addition, Calcein AM solution (final concentration 1 μg/ml; Thermo Scientific, USA) was added into each well and incubated for 1 h.

Test [2] deals with THP-1 (acute myeloid leukemia, wt FLT3). Briefly: Calcein AM cytotoxicity assay. It is filed as cell-based. Particulars: Homo sapiens.
Description: as §2, §3

A further test relates to K562. Description: Calcein AM cytotoxicity assay. Format: cell-based. Particulars: Homo sapiens.
Description: as §2, §3

The subject of test [3] is EOL-1 (eosinophilic leukaemia, carrying the fusion FIP1L1-PDGFRA). Briefly: Calcein AM cytotoxicity assay. It is filed as cell-based. Particulars: Homo sapiens.
Description: as §2, §3

For test [4], the system named is U937 (monocytic leukemia, wt FLT3). Description: Calcein AM cytotoxicity assay. It is filed as cell-based. Particulars: Homo sapiens.
Description: as §2, §3

In a further test the test system is MCF-7. Briefly: Calcein AM cytotoxicity assay. Format: cell-based. Particulars: Homo sapiens.
Description: as §2, §3

In test [5] the test system is MOLM-13 (acute myeloid leukemia, FLT3-ITD positive). Briefly: Calcein AM cytotoxicity assay. It is filed as cell-based. The settings on record: Homo sapiens.
Description: as §2, §3

Another test has as its target T3, FLT3 WT (Homo sapiens, UniProt P36888).
T3 construct: purchased ProQinase GmbH
T3 sequence (P36888 27-993): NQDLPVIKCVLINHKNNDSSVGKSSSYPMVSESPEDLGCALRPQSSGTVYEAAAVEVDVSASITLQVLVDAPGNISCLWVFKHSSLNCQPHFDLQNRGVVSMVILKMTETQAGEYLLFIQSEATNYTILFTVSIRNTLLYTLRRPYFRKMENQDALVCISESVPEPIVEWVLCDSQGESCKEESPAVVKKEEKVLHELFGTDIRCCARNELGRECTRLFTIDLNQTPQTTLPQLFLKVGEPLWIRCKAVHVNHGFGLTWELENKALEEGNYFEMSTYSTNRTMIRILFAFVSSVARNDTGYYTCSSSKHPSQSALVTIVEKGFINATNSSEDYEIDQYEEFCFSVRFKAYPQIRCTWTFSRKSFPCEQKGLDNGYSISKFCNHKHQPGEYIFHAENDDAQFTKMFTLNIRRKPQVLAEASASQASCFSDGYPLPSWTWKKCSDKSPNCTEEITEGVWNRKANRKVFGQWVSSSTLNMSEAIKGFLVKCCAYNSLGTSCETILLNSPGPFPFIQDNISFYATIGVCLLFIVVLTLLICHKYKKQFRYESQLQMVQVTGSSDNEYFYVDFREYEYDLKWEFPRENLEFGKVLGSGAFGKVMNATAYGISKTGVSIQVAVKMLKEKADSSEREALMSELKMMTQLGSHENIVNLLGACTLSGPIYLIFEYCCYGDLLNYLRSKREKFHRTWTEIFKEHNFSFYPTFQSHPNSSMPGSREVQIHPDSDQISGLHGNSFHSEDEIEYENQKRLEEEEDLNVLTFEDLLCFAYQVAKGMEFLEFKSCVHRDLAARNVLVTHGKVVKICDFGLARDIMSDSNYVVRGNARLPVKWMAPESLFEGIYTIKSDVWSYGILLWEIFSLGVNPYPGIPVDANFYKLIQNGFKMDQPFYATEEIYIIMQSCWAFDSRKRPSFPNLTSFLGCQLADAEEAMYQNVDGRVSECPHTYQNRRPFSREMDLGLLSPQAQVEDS
Briefly: Kinase inhibition assay with [γ-33P]ATP. Particulars: AGLT substrate, 1 μM ATP. Format: biochemical. How it is done:
as §1

Test [6] concerns Kasumi-1 (acute myeloid leukemia, KIT mutation Asn822Lys). Description: Calcein AM cytotoxicity assay. Format: cell-based. Particulars: Homo sapiens.
Description: as §2
We have been using the following cell lines: MV4-11 (acute myeloid leukemia, FLT3-ITD positive), MOLM-13 (acute myeloid leukemia, FLT3-ITD positive), THP-1 (acute myeloid leukemia, wt FLT3), U937 (monocytic leukemia, wt FLT3), EOL-1 (eosinophilic leukaemia, carrying the fusion FIP1L1-PDGFRA), H1703 (non-small cell lung carcinoma, PDGFRA amplification). They were maintained in RPMI-1640 supplemented with 10% fetal bovine serum, penicillin (100 U/ml) and streptomycin (100 μg/ml). Kasumi-1 (acute myeloid leukemia, KIT mutation Asn822Lys) cells were cultivated in RPMI-1640 supplemented with 15% fetal bovine serum, penicillin (100 U/ml) and streptomycin (100 μg/ml). K562 and MCF-7 cell lines were maintained in DMEM supplemented with 10% fetal bovine serum, penicilin (100 U/ml) and streptomycin (100 μg/ml). All cell lines were cultivated at 37° C. in 5% CO2. For cytotoxicity assays, cells were seeded in appropriate densities into 96 well plates and the next day tested compounds were added at various concentrations in triplicates. Three days after drug addition, Calcein AM solution (final concentration 1 μg/ml; Thermo Scientific, USA) was added into each well and incubated for 1 h. After this incubation period, fluorescence of the live cells was measured at 485 nm/538 nm (ex/em) with a Fluoroskan Ascent microplate reader (Labsystems).

Where [7] appears, read: comparative example, read-out: Influence of compounds on protein kinase inhibition, IC50 values (μM) CDK2.
Setting [8] is: comparative example, MV4-11, 72 h, read-out: Influence of compounds on proliferation (72 h), EC50 values (μM) MV4-11.
The mark [9] stands for this setting: comparative example, K562, 72 h, read-out: Influence of compounds on proliferation (72 h), EC50 values (μM) K562.
[10] abbreviates: comparative example, MOLM-13, 72 h, read-out: Influence of compounds on proliferation (72 h), EC50 values (μM) MOLM-13.

The term IC50 denotes the concentration needed to halve the response being measured. `NC1CCC(Nc2nc(Nc3ccc(CN4CCOCC4)cc3)c3ncn(Cc4ccccc4)c3n2)CC1` (stereo not shown) [Benzyl derivative of compound 264, reference compound]: the IC50 on CDK2/Cyclin E (setting [7]) amounted to 7.51 µM; at FLT3-ITD, 1.03 µM. The EC50 was 0.393 µM in [1] (setting [8]); 14.8 µM in test [2] (comparative example, THP-1, 72 h, read-out: Influence of compounds on proliferation (72 h), EC50 values (μM) THP-1); 2.69 µM in the test with K562 (setting [9]); 0.491 µM in test [3] (EOL1, comparative example, EOL-1, 72 h, read-out: Influence of compounds on proliferation (72 h), EC50 values (μM) EOL-1); 2.62 µM in test [4] (U-937, comparative example, U937, 72 h, read-out: Influence of compounds on proliferation (72 h), EC50 values (μM) U937); 4.83 µM with MCF-7 (MCF7, comparative example, MCF-7, 72 h, read-out: Influence of compounds on proliferation (72 h), EC50 values (μM) MCF-7). Besides, the EC50 in [5] (setting [10]) was 1.26 µM.

In the case of `c1cc(Nc2nc(N3CCCCC3)nc3c2ncn3C2CCCC2)ccc1CN1CCOCC1` [Compound 271], the IC50 came to 0.073 µM on FLT3 WT and 1.98 µM at CDK2/Cyclin E (histone H1, 15 μM ATP, read-out: IC50 values (μM) CDK2). Besides, the EC50 was 2.16 µM in test [6] (72 h, Kasumi-1, Calcein AM, three days, read-out: EC50 values (μM) Kasumi-1); 0.701 µM in test [1] (72 h, MV4-11, Calcein AM, three days after drug addition, read-out: EC50 values (μM) MV4-11); more than 10 µM in test [2] (72 h, THP-1, Calcein AM, three days, read-out: EC50 values (μM) THP-1); 8.28 µM with K562 (72 h, K562, Calcein AM, three days, read-out: EC50 values (μM) K562); 1.37 µM in test [3] (EOL1, 72 h, EOL-1, Calcein AM, three days, read-out: EC50 values (μM) EOL-1); 7.62 µM in [4] (U-937, 72 h, U937, Calcein AM, three days, read-out: EC50 values (μM) U937). Further, the EC50 in the test on MCF-7 (MCF7, 72 h, MCF-7, Calcein AM, three days, read-out: EC50 values (μM) MCF-7) is 12.3 µM; in test [5] (72 h, MOLM-13, Calcein AM, three days, read-out: EC50 values (μM) MOLM-13) it was 0.431 µM.

On to `NC1CCC(Nc2nc(Nc3ccc(CN4CCOCC4)cc3)c3ncn(-c4ccccc4)c3n2)CC1` (stereo not shown) [Phenyl derivative of compound 264, reference compound], for which the concentration for half-maximal inhibition (IC50) at CDK2/Cyclin E (setting [7]) is more than 5 µM; on FLT3-ITD it was 0.759 µM. The EC50 is 0.722 µM in test [6] (comparative example, Kasumi-1, 72 h, read-out: Influence of compounds on proliferation (72 h), EC50 values (μM) Kasumi-1); 0.648 µM in test [1] (setting [8]); 1.81 µM in the test on K562 (setting [9]); 0.912 µM in test [5] (setting [10]).
